Reference: PubChem BioAssay AID248 (DTP/NCI, 2004)
Values joined by “and” are separate entries in the source; they are usually repeats but may differ in a detail not shown here. Identical values can stand only once. Toxic doses and inconclusive results are not listed. Cut-off read from the data, not from the text of the source: active = T/C of 150% or more; inactive = T/C below 125%.

System: L1210 leukemia ip in BDF1 mice, survival T/C
Assay: NCI In Vivo Anticancer Drug Screen. Data for tumor model L1210 Leukemia (intraperitoneal) in B6D2F1 (BDF1) mice
Details: endpoint: mean survival time, higher = longer survival
How it was run: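 Tumor cells were implanted, animals were treated, and survival was followed. The result divides the treated measurement by the vehicle-control measurement.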

[1] = dose: 100.0 mg/kg/injection, schedule: Q01DX009 (ip), vehicle: saline with Tween-80
[2] = dose: 100.0 mg/kg/injection, schedule: Q04DX003 (ip), vehicle: saline with Tween-80
[3] = dose: 200.0 mg/kg/injection, schedule: Q01DX009 (ip), vehicle: saline with Tween-80
[4] = dose: 200.0 mg/kg/injection, schedule: Q04DX003 (ip), vehicle: saline with Tween-80
[5] = dose: 400.0 mg/kg/injection, schedule: Q01DX009 (ip), vehicle: saline with Tween-80
[6] = dose: 400.0 mg/kg/injection, schedule: Q04DX003 (ip), vehicle: saline with Tween-80
[7] = dose: 100.0 mg/kg/injection, schedule: Q01DX009 (ip), vehicle: Klucel (hydroxypropylcellulose) (HPC)
[8] = dose: 200.0 mg/kg/injection, schedule: Q01DX009 (ip), vehicle: Klucel (hydroxypropylcellulose) (HPC)
[9] = dose: 400.0 mg/kg/injection, schedule: Q01DX009 (ip), vehicle: Klucel (hydroxypropylcellulose) (HPC)

Measured: T/C

COc1ccc(OC)c(NC(=O)c2ccc(Cl)cc2)c1
inactive: dose: 100.0 mg/kg/injection, schedule: Q01DX001 (ip), vehicle: saline with Tween-80 101 % of control | [1] 97 % of control | dose: 100.0 mg/kg/injection, schedule: Q04DX002 (ip), vehicle: saline with Tween-80 104 % of control and 110 % of control | [2] 94 % of control | dose: 200.0 mg/kg/injection, schedule: Q01DX001 (ip), vehicle: saline with Tween-80 97 % of control | [3] 95 % of control and 97 % of control | dose: 200.0 mg/kg/injection, schedule: Q04DX002 (ip), vehicle: saline with Tween-80 104 % of control and 92 % of control | [4] 97 % of control | dose: 400.0 mg/kg/injection, schedule: Q01DX001 (ip), vehicle: saline with Tween-80 95 % of control | [5] 102 % of control and 124 % of control | dose: 400.0 mg/kg/injection, schedule: Q04DX002 (ip), vehicle: saline with Tween-80 94 % of control and 108 % of control | [6] 95 % of control

Cc1cn(CCCCOC(=O)c2ccc([N+](=O)[O-])cc2)c(=O)[nH]c1=O
inactive: dose: 100.0 mg/kg/injection, schedule: Q01DX001 (ip), vehicle: Klucel (hydroxypropylcellulose) (HPC) 95 % of control | dose: 200.0 mg/kg/injection, schedule: Q01DX001 (ip), vehicle: Klucel (hydroxypropylcellulose) (HPC) 100 % of control | dose: 400.0 mg/kg/injection, schedule: Q01DX001 (ip), vehicle: Klucel (hydroxypropylcellulose) (HPC) 87 % of control

Cc1ccc(N=Nc2ccc(C)cc2NC(=O)C2CC2)cc1
inactive: [7] 97 % of control | [8] 97 % of control | [9] 97 % of control

COC(=O)c1ccc(OC(=O)Nc2ccc(Br)cc2)cc1
inactive: [7] 102 % of control | [8] 92 % of control | [9] 92 % of control

CSCC(N)CO (centres undefined)
inactive: dose: 100.0 mg/kg/injection, schedule: Q01DX009 (ip), vehicle: saline 94 % of control | dose: 100.0 mg/kg/injection, schedule: Q04DX003 (ip), vehicle: saline 100 % of control | dose: 200.0 mg/kg/injection, schedule: Q01DX009 (ip), vehicle: saline 100 % of control | dose: 200.0 mg/kg/injection, schedule: Q04DX003 (ip), vehicle: saline 103 % of control | dose: 400.0 mg/kg/injection, schedule: Q01DX009 (ip), vehicle: saline 100 % of control | dose: 400.0 mg/kg/injection, schedule: Q04DX003 (ip), vehicle: saline 103 % of control

CCOC(=O)C1=C(C)NC(C)=C(C(C)=O)C1c1ccnc2ccccc12 (centres undefined)
inactive: [1] 98 % of control | [2] 95 % of control | [3] 102 % of control | [4] 92 % of control | [5] 100 % of control | [6] 100 % of control

N#CCCC(CCC#N)(S(=O)(=O)Cc1ccccc1)S(=O)(=O)Cc1ccccc1
inactive: dose: 100.0 mg/kg/injection, schedule: Q01DX001 (ip), vehicle: carboxymethylcellulose (CMC) 101 % of control | dose: 200.0 mg/kg/injection, schedule: Q01DX001 (ip), vehicle: carboxymethylcellulose (CMC) 101 % of control | dose: 400.0 mg/kg/injection, schedule: Q01DX001 (ip), vehicle: carboxymethylcellulose (CMC) 89 % of control

O=C(Nc1cccc([N+](=O)[O-])c1)c1ccc(C(=O)Nc2cccc([N+](=O)[O-])c2)cc1
inactive: dose: 100.0 mg/kg/injection, schedule: Q04DX002 (ip), vehicle: Klucel (hydroxypropylcellulose) (HPC) 98 % of control | dose: 200.0 mg/kg/injection, schedule: Q04DX002 (ip), vehicle: Klucel (hydroxypropylcellulose) (HPC) 91 % of control | dose: 400.0 mg/kg/injection, schedule: Q04DX002 (ip), vehicle: Klucel (hydroxypropylcellulose) (HPC) 86 % of control
